In PMC11253546, “Fidelity in plant hormone modifications catalyzed by Arabidopsis GH3 acyl acid amido synthetases” (The Journal of Biological Chemistry, 2024):

What was measured:
[1] = molecular target: T1, AtGH3.11/JAR1 (Arabidopsis thaliana, UniProt Q9SKE2); test: single-turnover TLC with [α-32P]ATP, acyl-AMP formation; assay type: biochemical; conditions: first half-reaction with JA, no amino acid, 1 mM MgCl2, pH 8.0, 25 °C; labelled compound
T1 sequence (Q9SKE2 1-575): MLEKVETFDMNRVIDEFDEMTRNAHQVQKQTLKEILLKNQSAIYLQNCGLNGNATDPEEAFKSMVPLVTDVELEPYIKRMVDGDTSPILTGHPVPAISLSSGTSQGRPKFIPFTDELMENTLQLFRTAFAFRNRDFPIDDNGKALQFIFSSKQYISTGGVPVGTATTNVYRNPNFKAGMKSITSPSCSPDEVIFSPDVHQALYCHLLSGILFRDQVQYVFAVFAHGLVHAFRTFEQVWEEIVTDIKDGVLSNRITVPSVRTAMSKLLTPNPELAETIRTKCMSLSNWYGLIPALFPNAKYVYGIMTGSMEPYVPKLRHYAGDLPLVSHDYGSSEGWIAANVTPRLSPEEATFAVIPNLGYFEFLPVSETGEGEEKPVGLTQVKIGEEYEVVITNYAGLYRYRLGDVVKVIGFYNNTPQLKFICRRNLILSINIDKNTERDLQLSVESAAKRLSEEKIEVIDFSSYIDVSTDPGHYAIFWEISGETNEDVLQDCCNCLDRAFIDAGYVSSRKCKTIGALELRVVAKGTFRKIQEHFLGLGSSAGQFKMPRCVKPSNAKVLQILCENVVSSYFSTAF

[2] = tested on: T2, GH3-N2/C5; test: coupled myokinase/pyruvate kinase/lactate dehydrogenase assay of AMP formation, A340; assay type: biochemical, Arabidopsis thaliana; conditions: 1 mM ATP, 5 mM aspartate, 1 mM MgCl2, pH 8.0, 25 °C
T2 construct: gene GH3.2; one fusion chain: AtGH3.2 residues 1-442 then AtGH3.5 residues 450-608; codon-optimized, pET-28a, His-tagged, E. coli Rosetta2 (DE3), monomer
Source text: coupled myokinase/pyruvate kinase/lactate dehydrogenase assay of AMP formation, A340 on GH3-N2/C5

[3] = molecular target: T3, AtGH3.12/PBS3 (Arabidopsis thaliana, UniProt Q9LYU4); test: TLC with [α-32P]ATP, acyl-AMP and AMP formation; assay type: biochemical; conditions: without or with glutamate, 1 mM MgCl2, pH 8.0, 25 °C
T3 construct: gene GH3.12; once misprinted PBS2
T3 sequence (Q9LYU4 1-575): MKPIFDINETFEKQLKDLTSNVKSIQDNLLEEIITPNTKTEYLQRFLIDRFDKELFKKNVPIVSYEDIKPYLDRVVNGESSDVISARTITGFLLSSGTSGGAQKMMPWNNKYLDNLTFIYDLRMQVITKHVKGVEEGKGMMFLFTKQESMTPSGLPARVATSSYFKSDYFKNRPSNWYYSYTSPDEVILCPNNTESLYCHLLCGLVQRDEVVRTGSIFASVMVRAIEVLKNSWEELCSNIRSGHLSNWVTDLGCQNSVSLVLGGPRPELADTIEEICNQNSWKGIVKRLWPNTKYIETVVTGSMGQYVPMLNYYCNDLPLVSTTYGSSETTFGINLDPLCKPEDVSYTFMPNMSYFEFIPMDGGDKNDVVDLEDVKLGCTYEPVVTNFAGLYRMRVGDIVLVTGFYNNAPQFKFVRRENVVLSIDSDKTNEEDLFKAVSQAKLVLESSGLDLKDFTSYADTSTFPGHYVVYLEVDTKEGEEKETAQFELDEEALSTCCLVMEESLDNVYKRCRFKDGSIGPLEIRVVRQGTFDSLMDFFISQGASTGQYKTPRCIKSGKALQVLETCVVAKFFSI

Structure (SMILES) | Km [2] [µM] | other results
Nc1ncnc2c1ncn2[C@@H]1O[C@H](COP(=O)(O)OP(=O)(O)OP(=O)(O)O)[C@@H](O)[C@H]1O [ATP] |  | single-turnover TLC with [α-32P]ATP, acyl-AMP formation [1]: rates of turnover from ATP to acyl-AMP (k1)
O=C(O)c1ccccc1 [BA] | 880 ± 68 | 
O=C(O)Cc1c[nH]c2ccccc12 [IAA] | 540 ± 17 | 
O=C(O)Cc1ccccc1 [PAA] | 1500 ± 280 | 
C=C(O[C@@H]1C=C(C(=O)O)C=C[C@H]1O)C(=O)O [chorismate] |  | TLC with [α-32P]ATP, acyl-AMP and AMP formation [3]: reactions using BA, 4-HBA, and chorismate produced acyl-AMP and AMP
